Patent US20090203716A1, “Pyrimidine low molecular weight ligands for modulating hormone receptors” (The Government of the United States of America as …, priority 2006, published 2009)
“Also recorded” adds a separate entry of the source.

Legend:
human LHCG receptor = biological target: T1, human LHCG receptor (Homo sapiens, UniProt P22888); assay: intracellular cAMP accumulation, agonism at LHCGR stably expressed in HEK EM 293 cells; format: cell-based; settings: for % Max. Resp. @ LHCGR in μM: % of maximum response of LHCGR to LH (1000 ng/ml); for EC50: read-out: EC50 (LHCGR) in μM [95% C.I.], cAMP, HEK EM 293 cells, dose response 0-100 μM compound
T1 construct: expressed in transfected cells
Procedure: (§1) With reference to Table 1, exemplary disclosed compounds were evaluated against human TSH receptor and human LHCG receptor that were stably expressed in HEK 293 EM cells as previously described by Libert et al. (Biochem. Biophys. Res. Commun. 1989, 165, 1250-1255); and by Schulz et al. (Mol. Endocrinol. 1999, 13, 181-190). Cell surface expression of TSH receptor and LHCG receptor were determined via FACS analysis (Kleinau, G.; Jäschke, H.; Neumann, S.; Lättig, S.; Paschke, R.; Krause, G. J. Biol. Chem. 2004, 279, 51590-51600).
Following aspiration of the medium after incubation with compounds, cells were lysed using lysis buffer 1 of the cAMP Biotrak Enzymeimmunoassay (EIA) System (Amersham Biosciences). The cAMP content of the cell lysate was determined using the manufacturer's protocol. […] The potency (EC50) was obtained from dose response curves (0-100 μM compound) by data analysis with GraphPad Prism 4 for Windows. […] The data are presented as mean±SEM of two independent experiments, each performed in duplicate.
(§2) Transiently transfected cells were cultured for 48 hours before the cAMP assay. HEK-EM 293 cells stably expressing TSHR, LHCGR or FSHR were seeded into 24-well plates with a density of 2.2×10^5 cells/well 24 hours before the cAMP assay. After removal of growth medium, cells were incubated for 1 hour in HBSS (Cellgro) with 10 mM HEPES (Cellgro) containing 1 mM 3-isobutyl-1-methylxanthine (IBMX) (Sigma) and the ligand of interest in a humidified 5% CO2 incubator at 37° C. The intracellular cAMP content was determined with the cAMP Biotrak Enzymeimmunoassay (EIA) System (GE Healthcare). Data were analyzed using GraphPad Prism 4 for Windows. Receptor expression was measured as described in Jaschke et al., J Biol Chem 281:9841-9844.

human TSH receptor = biological target: T2, human TSH receptor (Homo sapiens, UniProt P16473); assay: intracellular cAMP accumulation, agonism at TSHR stably expressed in HEK EM 293 cells; format: cell-based; settings: for % Max. Resp. @ TSHR in μM: % of maximum response of TSHR to TSH (100 mU/ml), * estimated maximum response at 100 μM compound; for EC50: cAMP, HEK EM 293 cells, dose response 0-100 μM compound, ** estimated EC50, no plateau
T2 construct: expressed in transfected cells
Procedure: as §1, with “51590-51600). Agonism of compounds 3-20 were determined via measurement of intracellular cyclic AMP accumulation. […] For example, […] certain compounds disclosed herein exerted no discernible effect on the FSH receptor.” for “51590-51600).”
Cells were cultured for 48 h in 24-well plates before incubation for 1 h in serum-free DMEM containing 1 mM 3-isobutyl-1-methylxanthine (IBMX) (SIGMA) and bovine TSH (1.8 μM) (SIGMA) or human LH (1000 ng/ml) (Dr. A. Parlow, NIDDK National Hormone and Pituitary Program) or compounds 3-19 (0-100 μM) in a humidified 5% CO2 incubator. Following aspiration of the medium after incubation with compounds, cells were lysed using lysis buffer 1 of the cAMP Biotrak Enzymeimmunoassay (EIA) System (Amersham Biosciences). The cAMP content of the cell lysate was determined using the manufacturer's protocol. The efficacy of receptor activation by small molecule modulators is expressed as % of maximum response of LHCG receptor or TSH receptor to LH or TSH, respectively. The potency (EC50) was obtained from dose response curves (0-100 μM compound) by data analysis with GraphPad Prism 4 for Windows. With reference to FIG. 1, intracellular cAMP production was determined in response to 100 μM of each compound and is expressed as % of maximum response of TSHR/LHCGR to TSH (100 mU/ml)/LH (1000 ng/ml). The data are presented as mean±SEM of two independent experiments, each performed in duplicate.
as §2

TSHR = TSHR (Homo sapiens, UniProt P16473); assay: inhibition of TSH-mediated cAMP response in HEK-EM 293 cells stably expressing TSHR; format: cell-based; parameters: expressed in transfected cells
Procedure: as §2
The TSH-mediated cAMP response of TSHR was inhibited by a maximum of 70.8±5.5% at 30 μM compound 52. […] Compound 52 has no activity at FSHR.
To exclude the possibility that compound 52 might be acting independently of TSHR by building aggregates with TSH, thereby inhibiting the TSH-induced response, tests were conducted for a possible aggregation between these two ligands. Compound 52 and TSH were preincubated for up to 15 minutes before addition to HEK-EM 293 cells stably expressing TSHR. […] There was no difference in the antagonistic effect whether TSH and compound 52 were preincubated together or not (data not shown) thereby excluding the possibility that its effect was caused by aggregation with TSH.

solubility = format: physicochemical; settings: compared to compound 52

T2 sequence (P16473 21-764): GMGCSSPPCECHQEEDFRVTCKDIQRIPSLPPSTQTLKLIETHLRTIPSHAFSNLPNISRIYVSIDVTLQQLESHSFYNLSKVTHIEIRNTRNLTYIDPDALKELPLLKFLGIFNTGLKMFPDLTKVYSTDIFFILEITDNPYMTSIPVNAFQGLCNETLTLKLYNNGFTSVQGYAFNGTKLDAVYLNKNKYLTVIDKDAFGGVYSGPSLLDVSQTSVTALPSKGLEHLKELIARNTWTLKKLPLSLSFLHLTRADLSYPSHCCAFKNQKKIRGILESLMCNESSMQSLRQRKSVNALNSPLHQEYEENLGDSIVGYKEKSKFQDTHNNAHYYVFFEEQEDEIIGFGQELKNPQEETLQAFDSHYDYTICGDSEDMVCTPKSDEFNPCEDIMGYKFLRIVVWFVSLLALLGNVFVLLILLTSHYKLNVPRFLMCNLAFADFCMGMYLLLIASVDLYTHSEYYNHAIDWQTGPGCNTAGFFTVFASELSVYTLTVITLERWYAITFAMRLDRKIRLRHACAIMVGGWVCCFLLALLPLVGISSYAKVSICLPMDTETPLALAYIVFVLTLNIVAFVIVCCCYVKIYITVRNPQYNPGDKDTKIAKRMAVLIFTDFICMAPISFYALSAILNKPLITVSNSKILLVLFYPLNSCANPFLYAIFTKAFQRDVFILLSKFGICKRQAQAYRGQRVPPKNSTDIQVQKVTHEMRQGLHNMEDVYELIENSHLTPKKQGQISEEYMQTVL
TSHR, sequence (P16473 21-764): as above
T1 sequence (P22888 27-699): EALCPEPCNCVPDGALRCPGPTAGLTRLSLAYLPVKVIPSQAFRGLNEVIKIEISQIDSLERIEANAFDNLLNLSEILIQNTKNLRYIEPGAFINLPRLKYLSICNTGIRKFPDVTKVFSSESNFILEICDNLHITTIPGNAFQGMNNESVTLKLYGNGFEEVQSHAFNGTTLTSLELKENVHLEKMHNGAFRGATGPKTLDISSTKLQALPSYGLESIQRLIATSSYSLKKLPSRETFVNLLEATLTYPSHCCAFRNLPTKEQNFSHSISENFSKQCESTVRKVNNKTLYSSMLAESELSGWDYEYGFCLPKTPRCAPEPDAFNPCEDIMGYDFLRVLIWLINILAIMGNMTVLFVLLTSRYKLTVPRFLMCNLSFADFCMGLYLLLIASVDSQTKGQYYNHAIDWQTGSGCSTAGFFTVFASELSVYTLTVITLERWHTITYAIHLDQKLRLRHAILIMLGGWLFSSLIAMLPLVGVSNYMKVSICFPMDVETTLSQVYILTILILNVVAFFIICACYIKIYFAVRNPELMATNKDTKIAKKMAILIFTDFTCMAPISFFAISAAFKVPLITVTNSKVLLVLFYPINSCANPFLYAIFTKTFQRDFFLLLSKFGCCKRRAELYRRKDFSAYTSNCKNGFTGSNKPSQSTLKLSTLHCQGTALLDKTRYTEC

CCOC(=O)c1sc2nc(SC)nc(-c3cccc(OC)c3)c2c1N [Compound 4, ethyl-5-amino-4-(3-methoxyphenyl)-2-(methylthio)thieno[2,3-d]pyrimidine-6-carboxylate]
% Max. Resp. @ LHCGR in μM (human LHCG receptor): 4.2 ± 2.2% | % Max. Resp. @ TSHR in μM (human TSH receptor): 1.5 ± 0.2%

COc1cccc(-c2nc(SC)nc3sc(C(=O)OC(C)(C)C)c(N)c23)c1 [Compound 5, tert-butyl-5-amino-4-(3-methoxyphenyl)-2-(methylthio)thieno[2,3-d]pyrimidine-6-carboxylate]
% Max. Resp. @ LHCGR in μM (human LHCG receptor): 23.8 ± 3.3% | EC50 (human LHCG receptor): 1.1 µM | % Max. Resp. @ TSHR in μM (human TSH receptor): >30.3* % | EC50 (human TSH receptor): 11900 nM

CCNC(=O)c1sc2nc(SC)nc(-c3cccc(OC)c3)c2c1N [Compound 6, 5-amino-N-(ethyl)-4-(3-methoxyphenyl)-2-(methylthio)thieno[2,3-d]pyrimidine-6-carboxamide]
% Max. Resp. @ LHCGR in μM (human LHCG receptor): 26.9 ± 4.8% | % Max. Resp. @ TSHR in μM (human TSH receptor): 2.3 ± 0.4%

COc1cccc(-c2nc(SC)nc3sc(C(=O)N(C)C(C)(C)C)c(N)c23)c1 [Compound 7, N-tert-butyl-5-amino-4-(3-methoxyphenyl)-N-methyl-2-(methylthio)thieno[2,3-d]pyrimidine-6-carboxamide]
% Max. Resp. @ LHCGR in μM (human LHCG receptor): 47.8 ± 2.8% | EC50 (human LHCG receptor): 0.8 µM | % Max. Resp. @ TSHR in μM (human TSH receptor): 3.6 ± 1.9%

COc1cccc(-c2nc(SC)nc3sc(C(=O)NN)c(N)c23)c1 [Compound 8, 5-amino-4-(3-methoxyphenyl)-2-(methylthio)thieno[2,3-d]pyrimidine-6-carbohydrazide]
% Max. Resp. @ LHCGR in μM (human LHCG receptor): 8.5 ± 3.6% | % Max. Resp. @ TSHR in μM (human TSH receptor): 6.1 ± 0.8%

COc1cccc(-c2nc(SC)nc3sc(C(=O)NN(C)C)c(N)c23)c1 [Compound 9, 5-amino-4-(3-methoxyphenyl)-N′N′-dimethyl-2-(methylthio)thieno[2,3-d]pyrimidine-6-carbohydrazide]
% Max. Resp. @ LHCGR in μM (human LHCG receptor): 11.0 ± 1.5% | % Max. Resp. @ TSHR in μM (human TSH receptor): 4.0 ± 0.1%

COc1cccc(-c2nc(SC)nc3sc(C(=O)NNC(C)(C)C)c(N)c23)c1 [Compound 10, N′-tert-butyl-5-amino-4-(3-methoxyphenyl)-2-(methylthio)thieno[2,3-d]pyrimidine-6-carbohydrazide]
% Max. Resp. @ LHCGR in μM (human LHCG receptor): 6.0 ± 3.1% | % Max. Resp. @ TSHR in μM (human TSH receptor): 6.4 ± 0.6%

COc1cccc(-c2nc(SC)nc3sc(C(=O)NNC(=O)OC(C)(C)C)c(N)c23)c1 [Compound 11, N′-Boc-5-amino-4-(3-methoxyphenyl)-2-(methylthio)thieno[2,3-d]pyrimidine-6-carbohydrazide]
% Max. Resp. @ LHCGR in μM (human LHCG receptor): 2.4 ± 0.5% | % Max. Resp. @ TSHR in μM (human TSH receptor): 1.9 ± 0.4%

COc1cccc(-c2nc(SC)nc3sc(C(=O)NCCO)c(N)c23)c1 [Compound 12, 5-amino-4-(3-methoxyphenyl)-N-(2-hydroxyethyl)-2-(methylthio)thieno[2,3-d]pyrimidine-6-carboxamide]
% Max. Resp. @ LHCGR in μM (human LHCG receptor): 20.5 ± 2.7% | % Max. Resp. @ TSHR in μM (human TSH receptor): 2.9 ± 0.5%

COc1cccc(-c2nc(SC)nc3sc(C(=O)NCC#N)c(N)c23)c1 [Compound 13, 5-amino-N-(cyanomethyl)-4-(3-methoxyphenyl)-2-(methylthio)thieno[2,3-d]pyrimidine-6-carboxamide]
% Max. Resp. @ LHCGR in μM (human LHCG receptor): 20.3 ± 2.1% | % Max. Resp. @ TSHR in μM (human TSH receptor): 3.6 ± 0.6%

COc1cccc(-c2nc(SC)nc3sc(C(=O)NCc4ccccc4)c(N)c23)c1 [Compound 14, 5-amino-N-benzyl-4-(3-methoxyphenyl)-2-(methylthio)thieno[2,3-d]pyrimidine-6-carboxamide]
% Max. Resp. @ LHCGR in μM (human LHCG receptor): 7.8 ± 2.7% | % Max. Resp. @ TSHR in μM (human TSH receptor): 3.0 ± 1.2%

COc1cccc(-c2nc(SC)nc3sc(C(=O)NCCc4ccccc4)c(N)c23)c1 [Compound 15, 5-amino-4-(3-methoxyphenyl)-2-(methylthio)-N-phenethylthieno[2,3-d]pyrimidine-6-carboxamide]
% Max. Resp. @ LHCGR in μM (human LHCG receptor): 25.6 ± 5.4% | % Max. Resp. @ TSHR in μM (human TSH receptor): 4.3 ± 0.4%

COc1cccc(-c2nc(SC)nc3sc(C(=O)NC(C)(C)C)c(N)c23)c1OC [Compound 16, N-tert-butyl-5-amino-4-(2,3-dimethoxyphenyl)-2-(methylthio)thieno[2,3-d]pyrimidine-6-carboxamide]
% Max. Resp. @ LHCGR in μM (human LHCG receptor): 50.1 ± 3.6% | EC50 (human LHCG receptor): 0.8 µM | % Max. Resp. @ TSHR in μM (human TSH receptor): 3.0 ± 0.9%

COc1cccc(-c2nc(SC)nc3sc(C(=O)NC(C)(C)C)c(N)c23)c1F [Compound 17, N-tert-butyl-5-amino-4-(2-fluoro-3-methoxyphenyl)-2-(methylthio)thieno[2,3-d]pyrimidine-6-carboxamide]
% Max. Resp. @ LHCGR in μM (human LHCG receptor): 46.3 ± 6.6% | EC50 (human LHCG receptor): 1.5 µM | % Max. Resp. @ TSHR in μM (human TSH receptor): >24.0* % | EC50 (human TSH receptor): 11500 nM

CSc1nc(-c2cccc(F)c2)c2c(N)c(C(=O)NC(C)(C)C)sc2n1 [Compound 18, N-tert-butyl-5-amino-4-(3-fluorophenyl)-2-(methylthio)thieno[2,3-d]pyrimidine-6-carboxamide]
EC50 (human LHCG receptor): 1.2 µM | % Max. Resp. @ TSHR in μM (human TSH receptor): 8.1 ± 1.7%

CSc1nc(-c2cccc(O)c2)c2c(N)c(C(=O)NC(C)(C)C)sc2n1 [Compound 19, N-tert-butyl-5-amino-4-(3-hydroxyphenyl)-2-(methylthio)thieno[2,3-d]pyrimidine-6-carboxamide]
% Max. Resp. @ LHCGR in μM (human LHCG receptor): 63.9 ± 14.2% | EC50 (human LHCG receptor): 1.9 µM | % Max. Resp. @ TSHR in μM (human TSH receptor): 11.2 ± 1.0%

CSc1nc(-c2ccc(/C=C/CS(C)(=O)=O)cc2)c2c(N)c(C(=O)NC(C)(C)C)sc2n1 [Compound 52/1]
antagonistic activity at TSHR in cAMP assay (TSHR): no antagonistic activity

C[S+]([O-])c1nc(-c2ccc(/C=C/CS(C)(=O)=O)cc2)c2c(N)c(C(=O)NC(C)(C)C)sc2n1 (centres unmarked) [Compound 52/2]
solubility (solubility): improved solubility | antagonistic activity at TSHR in cAMP assay (TSHR): antagonist activity similar to compound 52; also recorded: antagonistic activity

C[S+]([O-])C/C=C/c1ccc(-c2nc([S+](C)[O-])nc3sc(C(=O)NC(C)(C)C)c(N)c23)cc1 (centres unmarked) [Compound 52/3]
solubility (solubility): improved solubility | antagonistic activity at TSHR in cAMP assay (TSHR): antagonist activity similar to compound 52; also recorded: antagonistic activity
